Consider 23 compounds from ChEMBL document CHEMBL1201862, “PubChem BioAssay data set” (2004).

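How tested: cells in 96-well plates exposed to compound for 48 hours at five concentrations. GI50: concentration for 50% inhibition of growth.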 Calls of active or inactive are those of the source. Cut-off read from the data, not from the text of the source: active = GI50 up to about 1.1 µM and inactive = higher. Bounds are passed on as bounds.

Some test systems named below: DLD-1; M19-MEL; HOP-18; XF498; RXF 631; LXFL 529; BT-549; DMS-114; MDA-N.
Holding throughout (assay): NCI-60 cell line screen, 48 h

For `CCC1CN2CCc3cc(OC)c(OC)cc3C2CC1CC1c2cc(OC)c(OC)cc2CCN1C(=O)C1CCCN1` (centres undefined), the GI50 in the assay on DLD-1 was 30.1 µM (inactive); in the assay on M19-MEL it was 19.2 µM (inactive); with HOP-18, 33.7 µM (inactive); with XF498 it was 18.8 µM (inactive); in the assay on RXF 631 it was 28.7 µM (inactive); in the assay with LXFL 529, 24.5 µM (inactive).

On to `CCOC(=O)C1=C(NC(C)(C)C)OCC1=O`, for which the GI50 in the assay with DLD-1, in the assay on XF498, with RXF 631 and in the assay with LXFL 529 was > 100 µM (inactive) in each case.

For `OCCCCCCOc1ccc(-c2cc(-c3ccccn3)nc(-c3ccccn3)c2)cc1`, the GI50 was 0.169 µM (active) in the assay with DLD-1; 0.253 µM (active) with M19-MEL; 0.149 µM (active) with BT-549; 0.182 µM (active) with HOP-18; 1.51 µM (inactive) with XF498; 0.242 µM (active) in the assay on LXFL 529. The GI50 with DMS-114 is 0.207 µM (active); with MDA-N, 0.526 µM (active).

`CC(C)c1cccc(C(C)C)c1NC(=O)/C(Cc1nc2ccc(Cl)cc2nc1O)=N\NC(=O)C[N+](C)(C)C`: the GI50 in the assay with DLD-1, in the assay on M19-MEL, in the assay on RXF 631 and in the assay with DMS-114 was > 100 µM (inactive) each time.

For the compound `O=C1NC2C(O)CCCCC2C12CCCCC2` (centres undefined), the GI50 in the assay on DLD-1, in the assay on M19-MEL, in the assay with HOP-18, in the assay on XF498, in the assay with RXF 631 and in the assay with LXFL 529 was > 100 µM (inactive) in each case. For the same compound, the GI50 in the assay on DMS-114 was > 100 µM (inactive).

Turning to `CC(N)C(=O)OCN1C(=O)C2C3C=CC(C2C1=O)C1C2C(=O)N(COC(=O)C(C)N)C(=O)C2C31` (centres undefined), the GI50 in the assay with DLD-1 was 24.5 µM (inactive); with M19-MEL it was 23.6 µM (inactive); in the assay with HOP-18 it was > 100 µM (inactive); in the assay with XF498, 19 µM (inactive); in the assay on LXFL 529 it was 26.4 µM (inactive); in the assay with DMS-114, 17 µM (inactive).

Turning to `CCOC(OCC)C(CC)[Se]c1ccccc1` (centres undefined), the GI50 in the assay with DLD-1 is > 100 µM (inactive); in the assay with M19-MEL, 19.3 µM (inactive); with HOP-18, 65.2 µM (inactive); in the assay with XF498 it was > 100 µM (inactive); in the assay on RXF 631, 8.49 µM (inactive); in the assay on LXFL 529, 35.6 µM (inactive). Also, the GI50 in the assay with DMS-114 was 2.82 µM (inactive).

With `COc1ccc2oc3cccc(NCCN(C)C)c3c(=O)c2c1`, the GI50 in the assay with DLD-1 is 13.1 µM (inactive); in the assay on M19-MEL, 15.3 µM (inactive); in the assay on HOP-18, 11.6 µM (inactive); with XF498 it was 14.5 µM (inactive); in the assay on RXF 631, 13.7 µM (inactive); in the assay on LXFL 529, 13.1 µM (inactive). In addition, in the assay on DMS-114, the GI50 was 12.9 µM (inactive).

For the compound `COC(=O)C(C(=O)C(=O)Nc1ccc(Br)cc1)c1nc2ccc(Cl)cc2nc1O` (centres undefined), the GI50 in the assay with DLD-1, in the assay with M19-MEL, in the assay on HOP-18, with XF498, in the assay on RXF 631 and in the assay on LXFL 529 was > 100 µM (inactive) throughout. Moreover, in the assay on DMS-114, the GI50 is > 80 µM (inactive).

For the compound `CC(C)(C)C1=CC(=NNC(=S)NCc2ccccc2)C=C(C(C)(C)C)C1=O`, the GI50 in the assay on DLD-1 was 59.6 µM (inactive); in the assay on M19-MEL it was 98.4 µM (inactive); in the assay on XF498, > 100 µM (inactive); in the assay with RXF 631, > 100 µM (inactive); in the assay on LXFL 529 it was 63.1 µM (inactive); in the assay on DMS-114 it was 54.8 µM (inactive).

On to `O=C1CCC2(c3ccccc3)Nc3ccccc3N12` (centres undefined), for which the GI50 with DLD-1, in the assay with M19-MEL, in the assay on XF498, with RXF 631, with LXFL 529 and with DMS-114 was > 100 µM (inactive) in each case.

For `CCCCCCCCCCCCCCCCCCOCC1(COP(=O)([O-])OCC[N+](C)(C)C)CCCO1` (centres undefined), the GI50 in the assay with DLD-1 was 3.65 µM (inactive); in the assay with M19-MEL it was 2.99 µM (inactive); with HOP-18, 2.82 µM (inactive); with XF498, 7.64 µM (inactive); in the assay with LXFL 529, 4.92 µM (inactive); in the assay on DMS-114, 5.16 µM (inactive).

`NC(=O)COC(=O)c1c(Cl)nc2sccn12`: the GI50 is > 100 µM (inactive) in the assay on DLD-1; > 84.3 µM (inactive) with M19-MEL; > 100 µM (inactive) with HOP-18; > 100 µM (inactive) in the assay with XF498; > 100 µM (inactive) in the assay on RXF 631; > 65.5 µM (inactive) with LXFL 529. Also, in the assay with DMS-114, the GI50 is > 52.1 µM (inactive).

Turning to `Cn1c(=O)nc2n(-c3ccc(Cl)cc3)c3cc(Cl)ccc3nc-2c1=O`, the GI50 with DLD-1 is 1.79 µM (inactive); in the assay on M19-MEL it was 1.75 µM (inactive); with BT-549, 4.12 µM (inactive); in the assay with HOP-18, 14.9 µM (inactive); with XF498, 1.41 µM (inactive); in the assay with RXF 631, 1.97 µM (inactive). The GI50 in the assay with LXFL 529 was 1.7 µM (inactive); in the assay on DMS-114 it was 1.78 µM (inactive); with MDA-N it was 1.48 µM (inactive).

In the case of `N#Cc1ccccc1Nc1ccccc1S`, the GI50 with DLD-1 was 35.6 µM (inactive); in the assay on M19-MEL it was 39.4 µM (inactive); in the assay with HOP-18, 89.7 µM (inactive); with XF498, 18 µM (inactive); in the assay with RXF 631, 37.8 µM (inactive); in the assay with LXFL 529 it was 22.5 µM (inactive). The GI50 in the assay on DMS-114 is 21.8 µM (inactive).

For `COc1ccc(OC)c2c(C(=O)O)c(C(C)c3ccccc3)ccc12` (centres undefined), the GI50 with DLD-1, in the assay on M19-MEL, in the assay on HOP-18, with RXF 631 and in the assay on LXFL 529 was > 100 µM (inactive) each time.

With `COC(=O)[C@@]12C=CC(=O)[C@H]3C[C@@H](C(C(C)C)C1)[C@]32OC` (some centres undefined), the GI50 in the assay on DLD-1, with M19-MEL, with HOP-18, with XF498, with RXF 631 and in the assay with LXFL 529 was > 100 µM (inactive) each time. Also, in the assay with DMS-114, the GI50 was > 100 µM (inactive).

With `COc1cc2c(c(OC)c1OC)-c1ccc(SC)c(=O)cc1[C@@H](NC(=O)c1ccc(Cl)cc1)CC2`, the GI50 with DLD-1, in the assay on M19-MEL, in the assay with RXF 631, with LXFL 529 and in the assay on DMS-114 was < 0.01 µM (active) throughout.

As to `Cc1cc2c(=O)cc(-c3ccc(C(=O)O)cc3)oc2c(C(=O)O)c1C`, the GI50 with DLD-1, in the assay on M19-MEL, in the assay with HOP-18, in the assay on RXF 631, in the assay with LXFL 529 and in the assay on DMS-114 was > 100 µM (inactive) throughout.

`COC(=O)C(=Cc1cc(OC)ccc1OC)C(=O)OC`: the GI50 is 29 µM (inactive) in the assay on DLD-1; 22 µM (inactive) with M19-MEL; 25.5 µM (inactive) in the assay with XF498; 32 µM (inactive) with RXF 631; 16.6 µM (inactive) with LXFL 529; 20.8 µM (inactive) with DMS-114.

As to `COC1C(N)C(OC2C(Oc3cccc4c(O)c5c(=O)oc6ccc(C)c7c(=O)oc(c34)c5c67)OC(C)C(O)C2(C)O)OC(C)C1O` (centres undefined), the GI50 was 0.0206 µM (active) in the assay with DLD-1; 0.0166 µM (active) in the assay on M19-MEL; 0.0192 µM (active) with BT-549; 0.152 µM (active) with HOP-18; < 0.0116 µM (active) in the assay with XF498; 0.0351 µM (active) in the assay with RXF 631. Also, the GI50 is < 0.0121 µM (active) with LXFL 529, 0.0229 µM (active) with DMS-114 and 0.0743 µM (active) with MDA-N.

Consider `C=CCc1cc2cccc(OC)c2oc1=O`, for which the GI50 in the assay on DLD-1 is > 100 µM (inactive); in the assay on M19-MEL, > 100 µM (inactive); with HOP-18 it was 73.6 µM (inactive); with XF498, 7.24 µM (inactive); in the assay on RXF 631, > 100 µM (inactive); with LXFL 529, 57 µM (inactive). Also, in the assay with DMS-114, the GI50 is 80.5 µM (inactive).

In the case of `COC1C(O)C(C)OC(OC2C(Oc3cccc4c(O)c5c(=O)oc6ccc(C)c7c(=O)oc(c34)c5c67)OC(C)C3O[C@H](c4ccccc4)OC32)C1O` (some centres undefined), the GI50 in the assay with DLD-1 was 0.0456 µM (active); in the assay on M19-MEL, 0.156 µM (active); in the assay with HOP-18, 1.05 µM (active); with RXF 631 it was 0.0314 µM (active); with LXFL 529 it was 0.0678 µM (active); in the assay on DMS-114, 0.288 µM (active). Also, the GI50 with MDA-N was 0.372 µM (active).
